Experimental data reported in patent publication US9113629B2, “4-amino-6-(4-substituted-phenyl)-picolinates and 6-amino-2-(4-substituted-phenyl)-pyrimidine-4-carboxylates and their use as herbicides” (DOW AGROSCIENCES LLC, priority 2013, dated 2015).
Read-outs that look alike come from different tables or passages of the source.

Assays:
[1] = system: Key Broadleaf Weed and Crop Species; test: Post-emergent Test II herbicidal activity (Table 5); type: in vivo; conditions: post-emergence, 336 h, post-emergent, 14 days after application; for pest or weed control at 70 g/ha: 70 g ai/ha; for pest or weed control at 140 g/ha: 140 g ai/ha
Outline: (§1)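 Percent injury, 0 (none) to 100 (complete kill), was judged visually 14 d after spraying young plants at the first or second true leaf stage with compound in an acetone/DMSO aqueous carrier at 187 L/ha. Plants were kept in a greenhouse at 23–29 °C by day.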

[2] = system: Key Grass and Sedge Weeds as well as Grass Crops; test: Post-emergent Test II herbicidal activity (Table 6); type: in vivo; conditions: post-emergence, 336 h; for pest or weed control at 140 g/ha: application rate 140 g ai/ha; for pest or weed control at 70 g/ha: application rate 70 g ai/ha
Outline: as §1

[3] = ABUTH: velvetleaf (Abutilon theophrasti), read-out: Visual Growth Reduction (%) 14 Days After Application ABUTH
[4] = AMARE: redroot pigweed (Amaranthus retroflexus), read-out: Visual Growth Reduction (%) 14 Days After Application AMARE
[5] = BRSNN: oilseed-rape, canola (Brassica napus), read-out: Visual Growth Reduction (%) 14 Days After Application BRSNN
[6] = CHEAL: lambsquarters (Chenopodium album), read-out: Visual Growth Reduction (%) 14 Days After Application CHEAL
[7] = EPHHL: wild poinsettia (Euphorbia heterophylla), read-out: Visual Growth Reduction (%) 14 Days After Application EPHHL
[8] = HELAN: sunflower (Helianthus annuus), read-out: Visual Growth Reduction (%) 14 Days After Application HELAN
[9] = VIOTR: wild pansy (Viola tricolor), read-out: Visual Growth Reduction (%) 14 Days After Application VIOTR
[10] = Triticum aestivum, TRZSS (wheat), read-out: Visual Growth Reduction (%) 14 Days After Application, TRZSS
[11] = CYPES: yellow nutsedge (Cyperus esculentus), read-out: Visual Growth Reduction (%) 14 Days After Application, CYPES
[12] = DIGSA: crabgrass (Digitaria sanguinalis), read-out: Visual Growth Reduction (%) 14 Days After Application, DIGSA
[13] = ECHCG: barnyardgrass (Echinochloa crus-galli), read-out: Visual Growth Reduction (%) 14 Days After Application, ECHCG
[14] = ORYSA: rice (Oryza sativa), read-out: Visual Growth Reduction (%) 14 Days After Application, ORYSA
[15] = SETFA: giant foxtail (Setaria faberi), read-out: Visual Growth Reduction (%) 14 Days After Application, SETFA
[16] = SORVU: grain sorghum (Sorghum vulgare), read-out: Visual Growth Reduction (%) 14 Days After Application, SORVU
[17] = ZEAMX: maize, corn (Zea mays), read-out: Visual Growth Reduction (%) 14 Days After Application, ZEAMX

SMILES: COC(=O)c1nc(-c2cc(F)c(I)cc2F)c(F)c(N)c1Cl [Compound 55, methyl 4-amino-3-chloro-6-(2,5-difluoro-4-iodophenyl)-5-fluoropicolinate]
- pest or weed control at 70 g/ha [1, 3]: 95 to 100%
- pest or weed control at 140 g/ha [1, 3]: 95 to 100%
- pest or weed control at 70 g/ha [1, 4]: 95 to 100%
- pest or weed control at 140 g/ha [1, 4]: 95 to 100%
- pest or weed control at 70 g/ha [1, 5]: 95 to 100%
- pest or weed control at 140 g/ha [1, 5]: 95 to 100%
- pest or weed control at 70 g/ha [1, 6]: 95 to 100%
- pest or weed control at 140 g/ha [1, 6]: 95 to 100%
- pest or weed control at 70 g/ha [1, 7]: 95 to 100%
- pest or weed control at 140 g/ha [1, 7]: 95 to 100%
- pest or weed control at 70 g/ha [1, 8]: 95 to 100%
- pest or weed control at 140 g/ha [1, 8]: 95 to 100%
- pest or weed control at 70 g/ha [1, 9]: 95 to 100%
- pest or weed control at 140 g/ha [1, 9]: 95 to 100%
- pest or weed control at 140 g/ha [2, 10]: 95 to 100%
- pest or weed control at 70 g/ha [2, 11]: 95 to 100%
- pest or weed control at 140 g/ha [2, 11]: 95 to 100%
- pest or weed control at 70 g/ha [2, 12]: 85 to 94%
- pest or weed control at 140 g/ha [2, 12]: 85 to 94%
- pest or weed control at 70 g/ha [2, 13]: 95 to 100%
- pest or weed control at 140 g/ha [2, 13]: 95 to 100%
- pest or weed control at 70 g/ha [2, 14]: 0 to 29%
- pest or weed control at 140 g/ha [2, 14]: 0 to 29%
- pest or weed control at 70 g/ha [2, 15]: 95 to 100%
- pest or weed control at 140 g/ha [2, 15]: 95 to 100%
- pest or weed control at 70 g/ha [2, 16]: 85 to 94%
- pest or weed control at 140 g/ha [2, 16]: 95 to 100%
- pest or weed control at 70 g/ha [2, 17]: 60 to 74%
- pest or weed control at 140 g/ha [2, 17]: 85 to 94%

SMILES: COC(=O)c1nc(-c2cc(F)c(I)cc2F)cc(N)c1Cl [Compound 56]
- pest or weed control at 70 g/ha [1, 3]: 95 to 100%
- pest or weed control at 140 g/ha [1, 3]: 95 to 100%
- pest or weed control at 70 g/ha [1, 4]: 95 to 100%
- pest or weed control at 140 g/ha [1, 4]: 95 to 100%
- pest or weed control at 70 g/ha [1, 5]: 85 to 94%
- pest or weed control at 140 g/ha [1, 5]: 85 to 94%
- pest or weed control at 70 g/ha [1, 6]: 95 to 100%
- pest or weed control at 140 g/ha [1, 6]: 95 to 100%
- pest or weed control at 70 g/ha [1, 7]: 95 to 100%
- pest or weed control at 140 g/ha [1, 7]: 95 to 100%
- pest or weed control at 70 g/ha [1, 8]: 75 to 84%
- pest or weed control at 140 g/ha [1, 8]: 85 to 94%
- pest or weed control at 70 g/ha [1, 9]: 95 to 100%
- pest or weed control at 140 g/ha [1, 9]: 95 to 100%
- pest or weed control at 70 g/ha [2, 10]: 60 to 74%
- pest or weed control at 140 g/ha [2, 10]: 60 to 74%
- pest or weed control at 70 g/ha [2, 11]: 95 to 100%
- pest or weed control at 140 g/ha [2, 11]: 95 to 100%
- pest or weed control at 70 g/ha [2, 12]: 75 to 84%
- pest or weed control at 140 g/ha [2, 12]: 85 to 94%
- pest or weed control at 70 g/ha [2, 13]: 95 to 100%
- pest or weed control at 140 g/ha [2, 13]: 95 to 100%
- pest or weed control at 70 g/ha [2, 14]: 0 to 29%
- pest or weed control at 140 g/ha [2, 14]: 0 to 29%
- pest or weed control at 70 g/ha [2, 15]: 95 to 100%
- pest or weed control at 140 g/ha [2, 15]: 95 to 100%
- pest or weed control at 70 g/ha [2, 16]: 75 to 84%
- pest or weed control at 140 g/ha [2, 16]: 85 to 94%
- pest or weed control at 70 g/ha [2, 17]: 85 to 94%
- pest or weed control at 140 g/ha [2, 17]: 85 to 94%

SMILES: C=Cc1c(C(=O)OC)nc(-c2ccc(Br)cc2)c(F)c1N [Compound 57, methyl 4-amino-6-(4-bromophenyl)-5-fluoro-3-vinylpicolinate]
- pest or weed control at 70 g/ha [1, 3]: 85 to 94%
- pest or weed control at 140 g/ha [1, 3]: 85 to 94%
- pest or weed control at 70 g/ha [1, 4]: 85 to 94%
- pest or weed control at 140 g/ha [1, 4]: 95 to 100%
- pest or weed control at 70 g/ha [1, 5]: 60 to 74%
- pest or weed control at 140 g/ha [1, 5]: 75 to 84%
- pest or weed control at 70 g/ha [1, 6]: 85 to 94%
- pest or weed control at 140 g/ha [1, 6]: 85 to 94%
- pest or weed control at 70 g/ha [1, 7]: 85 to 94%
- pest or weed control at 140 g/ha [1, 7]: 85 to 94%
- pest or weed control at 70 g/ha [1, 8]: 85 to 94%
- pest or weed control at 140 g/ha [1, 8]: 85 to 94%
- pest or weed control at 70 g/ha [1, 9]: 0 to 29%
- pest or weed control at 140 g/ha [1, 9]: 0 to 29%
- pest or weed control at 70 g/ha [2, 10]: 0 to 29%
- pest or weed control at 140 g/ha [2, 10]: 0 to 29%
- pest or weed control at 70 g/ha [2, 11]: 95 to 100%
- pest or weed control at 140 g/ha [2, 11]: 95 to 100%
- pest or weed control at 70 g/ha [2, 12]: 0 to 29%
- pest or weed control at 140 g/ha [2, 12]: 0 to 29%
- pest or weed control at 70 g/ha [2, 13]: 0 to 29%
- pest or weed control at 140 g/ha [2, 13]: 0 to 29%
- pest or weed control at 70 g/ha [2, 14]: 0 to 29%
- pest or weed control at 140 g/ha [2, 14]: 0 to 29%
- pest or weed control at 70 g/ha [2, 15]: 0 to 29%
- pest or weed control at 140 g/ha [2, 15]: 0 to 29%
- pest or weed control at 70 g/ha [2, 16]: 75 to 84%
- pest or weed control at 140 g/ha [2, 16]: 95 to 100%
- pest or weed control at 70 g/ha [2, 17]: 0 to 29%
- pest or weed control at 140 g/ha [2, 17]: 0 to 29%
